According to patent US20240344035A1, “Culture Medium and Culture Method for Human Primary Acute Myeloid Leukemia Cells” (PRECEDO PHARMACEUTICALS CO., LTD, priority 2021, published 2024):

B1: human granulocyte colony stimulating factor (protein, UniProt P09919 31-207, looked up)
Granulocyte …: TPLGPASSLPQSFLLKCLEQVRKIQGDGAALQEKLVSECATYKLCHPEELVLLGHSLGIPWAPLSSCPSQALQLAGCLSQLHSGLFLYQGLLQALEGISPELGPTLDTLQLDVADFATTIWQQMEELGMAPALQPTQGAMPAFASAFQRRAGGVLVASHLQSFLEVSYRVLRHLAQP
notes: growth factor additive from Sino Biological
B2: human interleukin-10 (protein, UniProt P22301 19-178, looked up)
Interleukin-10: SPGQGTQSENSCTHFPGNLPNMLRDLRDAFSRVKTFFQMKDQLDNLLLKESLLEDFKGYLGCQALSEMIQFYLEEVMPQAENQDPDIKAHVNSLGENLKTLRLRLRRCHRFLPCENKSKAVEQVKNAFNKLQEKGIYKAMSEFDIFINYIEAYMTMKIRN
notes: cytokine additive from Sino Biological
B3: recombinant human FLT3 Ligand (protein, UniProt P49771 27-235, looked up)
Fms-related tyrosine kinase 3 …: TQDCSFQHSPISSDFAVKIRELSDYLLQDYPVTVASNLQDEELCGGLWRLVLAQRWMERLKTVAGSKMQGLLERVNTEIHFVTKCAFQPPPSCLRFVQTNISRLLQETSEQLVALKPWITRQNFSRCLELQCQPDSSTLPPPWSPRPLEATAPTAPQPPLLLLLLLPVGLLLLAAAWCLHWQRTRRRTPRPGEQVPPVPSPQDLLLVEH
notes: as for B1
B4: human interleukin-11 (protein, UniProt P20809 22-199, looked up)
Interleukin-11: PGPPPGPPRVSPDPRAELDSTVLLTRSLLADTRQLAAQLRDKFPADGDHNLDSLPTLAMSAGALGALQLPGVLTRLRADLLSYLRHVQWLRRAGGSSLKTLEPELGTLQARLDRLLRRLQLLMSRLALPQPPPDPPAPPLAPPSSAWGGIRAAHAILGGLHLTLDWAVRGLLLLKTRL
notes: as for B2
B5: human interleukin-4 (protein, UniProt P05112 25-153, looked up)
Interleukin-4: HKCDITLQEIIKTLNSLTEQKTLCTELTVTDIFAASKNTTEKETFCRAATVLRQFYSHHEKDTRCLGATAQQFHRHKQLIRFLKRLDRNLWGLAGLNSCPVKEANQSTLENFLERLKTIMREKYSKCSS
notes: as for B2
B6: human interleukin-22 (protein, UniProt Q9GZX6 34-179, looked up)
Interleukin-22: APISSHCRLDKSNFQQPYITNRTFMLAKEASLADNNTDVRLIGEKLFHGVSMSERCYLMKQVLNFTLEEVLFPQSDRFQPYMQEVVPFLARLSNRLSTCHIEGDDLHIQRNVQKLKDTVKKLGESGEIKAIGELDLLFMSLRNACI
notes: cytokine additive from Peprotech
B7: recombinant human macrophage colony-stimulating factor (protein, UniProt P09603 33-554, looked up)
Macrophage colony-stimulating …: EEVSEYCSHMIGSGHLQSLQRLIDSQMETSCQITFEFVDQEQLKDPVCYLKKAFLLVQDIMEDTMRFRDNTPNAIAIVQLQELSLRLKSCFTKDYEEHDKACVRTFYETPLQLLEKVKNVFNETKNLLDKDWNIFSKNCNNSFAECSSQDVVTKPDCNCLYPKAIPSSDPASVSPHQPLAPSMAPVAGLTWEDSEGTEGSSLLPGEQPLHTVDPGSAKQRPPRSTCQSFEPPETPVVKDSTIGGSPQPRPSVGAFNPGMEDILDSAMGTNWVPEEASGEASEIPVPQGTELSPSRPGGGSMQTEPARPSNFLSASSPLPASAKGQQPADVTGTALPRVGPVRPTGQDWNHTPQKTDHPSALLRDPPEPGSPRISSLRPQGLSNPSTLSAQPQLSRSHSSGSVLPLGELEGRRSTRDRRSPAEPEGGPASEGAARPLPRFNSVPLTDTGHERQSEGSFSPQLQESVFHLLVPSVILVLLAVGGLLFYRWRRRSHQEPQRADSPLEQPEGSPLTQDDRQVELPV
notes: as for B1

Experiments:
Type in all cases: cell-based
[1] = test system: human primary acute myeloid leukemia cells; experiment: Effect of single added factors in Basal Medium on proliferation (CCK-8); conditions: additive at the listed final concentration in Basal Medium; samples A17007, A25104; 5 to 8 days; CCK-8, 450 nm; versus Basal Medium
Description: First, the Basal Medium was prepared. The formulation of the Basal Medium was monocyte serum-free medium (purchased from BI, 05-080-1A)+10% (v/v) fetal bovine serum (purchased from ExCell Bio, FND500)+100 μg/mL Primocin (purchased from InvivoGen, 0.2% (v/v), the commercial product concentration is 50 mg/mL).
Different types of growth factors (see Table 1) were added to the Basal Medium to prepare culture mediums for human primary acute myeloid leukemia cells containing different added components.
The culture mediums of different compositions in Table 1 were added into a 96-well plate in a volume of 100 μL/well. Human primary acute myeloid leukemia cells isolated from two cases of human primary acute myeloid leukemia bone marrow samples (numbered A17007, A25104, from the First Affiliated Hospital of Anhui Medical University) according to the above step (2) were inoculated in the 96-well culture plate at a density of 1×10^4 cells/well and cultured at 37° C. and 5% […]. After 5 to 8 days of culture, the cells grew to 70% to 85%, and 10 μL of Cell Counting Kit-8 (CCK-8, purchased from MCE) was added to each well and incubated at 37° C. and 5% CO2 for 2 to 4 hours. The substances in each well were mixed, and the plate was read using a multifunctional microplate reader (Multi-Mode Detection Platform, American Molecular Instruments (Shanghai) Co., Ltd.) at 450 nm. The Basal Medium without addition of any additive was used as a control.

[2] = test system: human primary acute myeloid leukemia cells; experiment: Proliferative effects of different concentrations of added factors (ratio to Blank Control, FIGS. 2A-2H); conditions: for concentration at which the cell proliferation effect is most significant: five concentrations tested; for proliferation-promoting effect of the factor: samples A23065, A17112, factor added back to formulation lacking it
Description: Human primary acute myeloid leukemia cells were obtained from human primary acute myeloid leukemia bone marrow samples (numbered A23065, A17112) according to the process of step (2)-3 of Example 1. The cells were resuspended with Basal Medium (monocyte serum-free medium+10% (v/v) fetal bovine serum+100 μg/mL Primocin) for later use.
20 μl of cell suspension containing 4×10^4 cells was added to each well, and the suspension was diluted with 1 mL medium of the above Formulations 1-8, respectively.
(§1) When using the culture medium of Formulation 1, the prepared glutamine additive was added respectively to a 48-well plate inoculated with primary cells, with 1 mL per well, and the final concentration of glutamine additive was 0.5 mM, 1 mM, 2 mM, 4 mM, 8 mM, respectively; a well of Blank Control (BC) was set using the culture medium of Formulation 1.
as §1, with “2,” for “1,”, “human SCF” for “glutamine additive”, “was” for “was 0.5 mM,”, “ng/mL, 3 ng/mL, 9 ng/mL, 27 ng/mL, 81 ng/mL,” for “mM, 2 mM, 4 mM, 8 mM,”, “2.” for “1.”
as §1, with “5,” for “1,”, “human FLT3L” for “glutamine additive”, “was” for “was 0.5 mM,”, “ng/mL, 3 ng/mL, 9 ng/mL, 27 ng/mL, 81 ng/mL,” for “mM, 2 mM, 4 mM, 8 mM,”, “5.” for “1.”
When using the culture medium of Formulation 6, the prepared non-essential amino acids were added respectively to a 48-well plate inoculated with primary cells, with 1 mL per well, and the final concentration of non-essential amino acids was 12.5 µM, 25 µM, 50 µM, 100 µM, 200 µM, respectively; a well of Blank Control (BC) was set using the culture medium of Formulation 6.
as §1, with “8,” for “1,”, “human M-CSF” for “glutamine additive”, “was” for “was 0.5 mM,”, “ng/mL, 3 ng/mL, 9 ng/mL, 27 ng/mL, 81 ng/mL,” for “mM, 2 mM, 4 mM, 8 mM,”, “8.” for “1.”
In FIGS. 2A to 2H, the ratio is a ratio of the number of cells of the first passage cultured by using each culture medium to the number of cells of the first passage cultured in the corresponding well of Blank Control.

[3] = test system: human primary acute myeloid leukemia cells; experiment: Effect of combinations of added factors on proliferation (viable cell counting, FIG. 1); conditions: six bone marrow samples
Description: The culture mediums for human primary acute myeloid leukemia cells containing different combinations of added factors were prepared according to the components in Table 2, to investigate the proliferation-promoting effects of different added factor combinations on human primary acute myeloid leukemia cells.
Human primary acute myeloid leukemia cells were obtained from human primary acute myeloid leukemia bone marrow samples (numbered A17151, A17152, A20090, A20101, A21004, A20141) according to the process of step (2)-3 of Example 1. The obtained cell suspension was divided into 11 equal parts, which were then centrifuged at 1500 rpm for 4 minutes. After centrifugation, the cells were resuspended with 200 μL BM or No. 1 to 10 culture medium, respectively, and inoculated into a 48-well plate at a viable cell density of 2×10^4 cells/well (20,000 cells per well). Each well in the 48-well plate was supplemented to a volume of 1 mL with the corresponding culture mediums, and the resultant was fully mixed. After surface disinfection, the plate was placed in a 37° C., 5% CO2 incubator (purchased from Thermo Fisher) for culture.
The cells in the 48-well plate grew to more than 85% and were transferred to a 15 mL centrifuge tube which was then centrifuged at 1500 rpm for 5 minutes. 500 μL of monocyte serum-free medium was added to the centrifuge tube to resuspend the cell pellet. 12 μL of the resuspended cell suspension was fully mixed with 12 μL of trypan blue dye (Sangon Biotech (Shanghai) Co., Ltd.), and then 20 μL of the mixture was added into a cell counting plate (Countstar, specifications: 50 pieces/box). The percentage of viable large cells (cell size>10 μm) were calculated using a cell counter (Countstar, IC1000) (percentage of viable large cells (cell size>10 μm)=number of viable cells/total number of cells*100%). The results obtained from human primary acute myeloid leukemia cells of bone marrow samples A17151, A17152, A20090, A20101, A21004, and A20141 are shown in FIG. 1.

| Molecule | Level of promoting cell proliferation [1] | concentration at which the cell proliferation effect is most significant [2] | proliferation-promoting effect of the factor [2] | proliferation-promoting effect of the factor (omission from No. 1 medium) [3] |
| --- | --- | --- | --- | --- |
| C[C@@H](N)[C@H]1CC[C@H](C(=O)Nc2ccncc2)CC1 [Y-27632, reference compound] | − |  |  |  |
| human interleukin-7 [human IL-7] | + | 17 ng/mL | significant proliferation-promoting effect | significantly promote the proliferation |
| human interleukin-6 [human IL-6] | + | 5.67 ng/mL | significant proliferation-promoting effect | significantly promote the proliferation |
| human stem cell factor [human SCF] | + | 9 ng/mL | significant proliferation-promoting effect | significantly promote the proliferation |
| human leukocyte interferon [human IFN-α] | + |  |  |  |
| human interleukin-5 [human IL-5] | − |  |  |  |
| human thrombopoietin [human TPO] | − |  |  |  |
| B1 | − |  |  |  |
| B2 | − |  |  |  |
| B3 | + | 27 ng/mL | significant proliferation-promoting effect | significantly promote the proliferation |
| B4 | − |  |  |  |
| B5 | − |  |  |  |
| B6 | − |  |  |  |
| B7 | + | 27 ng/mL | significant proliferation-promoting effect | significantly promote the proliferation |
